Results reported in patent publication EP1258248A2, “Tumor treatments comprising a fumagillol derivative and a further antineoplastic agent” (TAP Pharmaceutical Products, Inc., priority 2001, dated 2002).
Like-named read-outs stand apart in the source and are kept apart here.

What was measured:
lung cancer [1] = settings: no TNP-470, lung cancer historical data, cited from earlier work
lung cancer [2] = test: Phase I clinical study of intermittent TNP-470 combined with paclitaxel (Example 1), lung cancer patients; format: in vivo, human
Excerpt: (§1) TNP-470 administrations were repeated up to three times per week.
(§2) In the table, "response" refers to the percentage of patients whose tumor shrank by more than fifty percent; and "time to progression" refers to the median value of the length of time between the first dose of drug and observation that the tumor has grown by more than fifty percent, or that new tumors have appeared. Patients who stop taking the drug for other reasons are considered lost to follow-up for "time to progression" calculations. "Survival" in the table is a median value.

[3] = system: advanced or metastatic cancer; test: Phase I clinical study of intermittent TNP-470 with paclitaxel and carboplatin at a dose of AUC 6 (Example 2)
Description: Doses of TNP-470 and paclitaxel were modified as described below.
Twenty adult patients with advanced or metastatic cancer, were treated with TNP-470 (synthesized according to the procedure of U.S. Patent No. 5,180,738) in a liquid cyclodextrin-containing formulation using repeated administrations of a high dose (60 mg/m^2) given over one hour, combined with 225 mg/m^2 paclitaxel given over three hours. Carboplatin was given at doses calculated to provide an "area-under-the-curve (AUC)" exposure of 5 or 6 mg/mL/min (hereinafter referred to as "a dose of AUC 5" or "a dose of AUC 6"), according to the formula Dose (mg) = AUC x (glomerular filtration rate + 25) [formula] as described in the package insert for carboplatin. Glomerular filtration rate was estimated by creatinine clearance, either measured or calculated from the patient's age, weight, gender and serum creatinine according to the Cockcroft-Gault equation Cr CL = ((140-age) x weight (kg)/72 x serum creatinine) x 1.0 if male or 0.85 if female [formula]
In this study, paclitaxel was administered first, followed one hour later by TNP-470, then finally by the carboplatin. TNP-470 administrations were repeated up to three thimes per week. Paclitaxel and carboplatin administrations were repeated every three weeks as the patients' condition permitted. Anti-emetic therapy and prophylaxis against paclitaxel hypersensitivity were administered in accordance with the paclitaxel package insert on days when paclitaxel and carboplatin were administered.
The patients' tumors were measured at the start of the study, after six to eight weeks of therapy, and at two-month intervals thereafter. Patients continued to receive TNP-470 until tumors grew by 50% or they experienced adverse events.
Three patients, all with non-small cell lung cancer, received TNP-470 in combination with paclitaxel and carboplatin (a dose of AUC 5).

[4] = system: advanced or metastatic cancer; test: Phase I clinical study of intermittent TNP-470 combined with paclitaxel (Example 1), all patients; format: in vivo, human; settings: TNP-470 20-60 mg/m^2 + 135-225 mg/m^2 paclitaxel; 32 patients (different cancers)
Excerpt: as §1, §2

[5] = system: non-small cell lung cancer; test: Phase I clinical study of intermittent TNP-470 with paclitaxel and carboplatin at a dose of AUC 5 (Example 2); format: in vivo, human
metastatic cancer = test: Phase I clinical study of continuously infused TNP-470 with paclitaxel and carboplatin (Example 3); format: in vivo, human; settings: TNP-470 2.5-10 mg/m^2 continuous infusion with or without 60 on Day 1 + 200-225 mg/m^2 paclitaxel; carboplatin AUC 5-6; 20 patients (different cancers)
Description: Twenty adult patients with metastatic cancer, including patients with lung cancer, were treated with TNP-470, using repeated continuous administrations of low doses (2.5-10 mg/m^2 over five days in combination with paclitaxel at doses of 200-225 mg/m^2 and carboplatin at a dose of AUC 5 or AUC 6 (as explained in Example 2 above) reported in row 7 of Table 1 above.
In this study, paclitaxel was administered first, followed by the carboplatin, then by TNP-470 administered intravenously via portable continuous infusion syringe pump (available from Sims-Deltec) at a dose of 2.5 -10 mg/m^2 for five days (115-120 hours). The five-day TNP-470 infusion was repeated every week.
In an ongoing cohort of this study, in addition to the described therapy, nine patients received 60 mg/m^2 TNP-470 as a one-hour intravenous infusion after infusion of paclitaxel and prior to infusion of carboplatin. This high-dose one-hour TNP-470 infusion was administered only when paclitaxel and carboplatin were administered.

[6] = TNP-470 20-60 mg/m^2 + 135-225 mg/m^2 paclitaxel, 15 patients (lung cancer only), median
[7] = TNP-470 60 mg/m^2 + 225 mg/m^2 paclitaxel, carboplatin AUC 6, 14 patients (different cancers)

| SMILES | Survival (months) (lung cancer [1]; median) | Time to Progression (months) (lung cancer [1]; median) | Responses (percentage) (lung cancer [1]; patients whose tumor shrank by more than fifty percent) | Survival (months) (lung cancer [2]; [6]) | Time to Progression (months) (lung cancer [2]; [6]) | Responses (percentage) (lung cancer [2]; TNP-470 20-60 mg/m^2 i.v. up to three times per week + 135-225 mg/m^2 paclitaxel every three weeks, 15 patients (lung cancer only)) | increase in survival over that previously reported for patients treated with paclitaxel alone (lung cancer [2]; TNP-470 + paclitaxel, patients with lung cancer, 14.3 months vs. 8 months) | tolerability of the combined therapy ([3]; TNP-470 60 mg/m^2 + 225 mg/m^2 paclitaxel + carboplatin at a dose of AUC 6, variety of different cancers, prior chemotherapy) | Survival (months) [3, 7] | Time to Progression (months) [3, 7] | Responses (percentage) ([3]; TNP-470 60 mg/m^2 + 225 mg/m^2 paclitaxel, carboplatin AUC 6, 14 patients (different cancers), prior chemotherapy, insufficient therapy to evaluate effectiveness) | Responses (percentage) [4] [percentage] | Responses (percentage) ([5]; TNP-470 60 mg/m^2 + 225 mg/m^2 paclitaxel, carboplatin AUC 5, 3 patients (lung cancer only)) | Survival (months) ([5]; TNP-470 60 mg/m^2 + 225 mg/m^2 paclitaxel, carboplatin AUC 5, 3 patients (lung cancer only), individual values) | tumor response in words ([5]; TNP-470 in combination with paclitaxel and carboplatin (a dose of AUC 5), three patients, all with non-small cell lung cancer) | tumor shrinkage ([5]; TNP-470 with paclitaxel and carboplatin, patients with non-small-cell lung cancer) | Responses (percentage) (metastatic cancer) |
| --- | --- | --- | --- | --- | --- | --- | --- | --- | --- | --- | --- | --- | --- | --- | --- | --- | --- |
| CC(=O)O[C@H]1C(=O)[C@@]2(C)[C@H]([C@H](OC(=O)c3ccccc3)[C@]3(O)C[C@H](OC(=O)[C@H](O)[C@@H](NC(=O)c4ccccc4)c4ccccc4)C(C)=C1C3(C)C)[C@]1(OC(C)=O)CO[C@@H]1C[C@@H]2O [paclitaxel] | 6-9 months | ∼3 months | 20-30 percentage | – | – | – | – | – | – | – | – | – | – | – | – | – | – |
| CO[C@@H]1[C@H](OC(=O)NC(=O)CCl)CC[C@]2(CO2)[C@H]1[C@@]1(C)O[C@@H]1CC=C(C)C [TNP-470, 6-O-(N-chloroacetylcarbamoyl) fumagillol] | – | – | – | 14.3 | 5.4 | 33 | greater than 70% | tolerated the combined therapy poorly beyond two cycles of therapy | regimen not tolerated | regimen not tolerated | 0 | 28 | 100 | often, sixteen and more than twenty-two | All three had partial responses | experienced tumor shrinkage | 20 |
